According to the supplement of paper PMC10331698:
± gives the standard deviation of the averaged measurements.

Experiments:
Test in all cases: level (log10 ratio to DMSO vehicle control); higher = higher biomarker level / cell amount than vehicle control
[1] = compound: OCCCC(F)(F)C(F)(F)C(F)(F)C(F)(F)C(F)(F)C(F)(F)C(F)(F)C(F)(F)F [3-(Perfluorooctyl)propanol]; conditions: 6700 nM; in DMSO
Protocol: (§1)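 BioMAP Diversity Plus panel of 12 human primary cell co-culture systems (3C, 4H, LPS, SAg, BT, BF4T, BE3C, CASM3C, HDF3CGF, KF3CT, MyoF, Mphg). Compounds were added 1 h before stimulation and left for 24 h (MyoF 48 h; BT 72 h for soluble read-outs or 6 d for IgG). Biomarkers were read by ELISA, cytotoxicity by SRB, PBMC viability and proliferation by Alamar Blue. Each well value was divided by the mean of 8 DMSO control wells on the same plate and log10 transformed; duplicate blinded samples were tested at 4 concentrations.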

[2] = compound: FC(F)(F)C(F)(F)C(F)(F)C(F)(F)CCI [1H,1H,2H,2H-Perfluorohexyl iodide]; conditions: in DMSO
Protocol: as §1

[3] = compound: O=S(=O)(O)CCC(F)(F)C(F)(F)C(F)(F)C(F)(F)F [4:2 Fluorotelomer sulfonic acid]; conditions: in DMSO
Protocol: as §1

[4] = compound: O=C(CC(=O)C(F)(F)C(F)(F)C(F)(F)F)c1cccs1 [(Perfluorobutyryl)-2-thenoylmethane]; conditions: in DMSO
Protocol: as §1

[5] = compound: CN(Cc1cnc2nc(N)nc(N)c2n1)c1ccc(C(=O)N[C@@H](CCC(=O)O)C(=O)O)cc1 [Methotrexate]; conditions: in DMSO
Protocol: as §1

[6] = compound: FC(F)(F)COC(OCC(F)(F)F)OCC(F)(F)F [tris(Trifluoroethoxy)methane]; conditions: in DMSO
Protocol: as §1

[7] = compound: OCC(F)(F)C(F)(F)C(F)(F)C(F)(F)C(F)(F)C(F)(F)F [6:1 Fluorotelomer alcohol]; conditions: in DMSO
Protocol: as §1

Test System	level (log10) [1]	level (log10) ([2]; 6700 nM)	level (log10) ([2]; 20000 nM)	level (log10) ([2]; 60000 nM)	level (log10) ([3]; 6700 nM)	level (log10) ([3]; 20000 nM)	level (log10) ([3]; 60000 nM)	level (log10) ([4]; 6700 nM)	level (log10) ([4]; 20000 nM)	level (log10) ([5]; 1500 nM)	level (log10) ([5]; 4400 nM)	level (log10) ([5]; 13000 nM)	level (log10) ([5]; 40000 nM)	level (log10) ([6]; 6700 nM)	level (log10) ([6]; 20000 nM)	level (log10) ([6]; 60000 nM)	level (log10) ([7]; 6700 nM)	level (log10) ([7]; 20000 nM)	level (log10) ([7]; 60000 nM)
4H:CCL26/Eotaxin-3	-0.009 ± 0.0042	-0.0145 ± 0.032	-0.06 ± 0.013	-0.1 ± 0.0042	-0.084 ± 0.042	-0.004 ± 0.037	0.0225 ± 0.037	-0.041 ± 0.0057	-0.241 ± 0.016	-0.018 ± 0.0085	-0.008 ± 0.011	0.014 ± 0.021	-0.002 ± 0.014	0.018 ± 0.047	0.0235 ± 0.043	0.0415 ± 0.0078	0.01 ± 0.0085	0.012 ± 0.018	-0.003 ± 0.025
BF4T:CXCL8/IL-8	0.006 ± 0.023	0.0135 ± 0.025	0.0195 ± 0.00071	0.0355 ± 0.03	-0.001 ± 0.052	0.0065 ± 0.016	0.001 ± 0.033	0.0325 ± 0.028	0.114 ± 0.0092	0.035 ± 0.027	0.027 ± 0.071	0.041 ± 0.057	0.0365 ± 0.12	0 ± 0.037	0.007 ± 0.021	0.005 ± 0.024	0.008 ± 0.057	-0.0085 ± 0.039	0.013 ± 0.016
BT:B cell Proliferation	-0.0025 ± 0.0064	-0.0105 ± 0.00071	-0.0085 ± 0.016	-0.0005 ± 0.032	0.0295 ± 0.047	0.042 ± 0.034	0.0225 ± 0.0078	-0.0105 ± 0.025	-0.122 ± 0.036	-0.0915 ± 0.016	-0.1 ± 0.0085	-0.099 ± 0.0071	-0.052 ± 0.037	-0.021 ± 0.021	-0.005 ± 0.018	-0.006 ± 0.073	-0.007 ± 0.013	-0.009 ± 0.038	-0.148 ± 0.1
BF4T:CD90	-0.0195 ± 0.018	-0.011 ± 0.0085	-0.018 ± 0.021	-0.0075 ± 0.005	-0.0075 ± 0.0092	-0.018 ± 0.0042	-0.011 ± 0.014	-0.014 ± 0.0085	-0.062 ± 0.027	0.001 ± 0.0014	-0.0145 ± 0.0035	-0.006 ± 0.016	0.0235 ± 0.012	-0.008 ± 0.0042	-0.004 ± 0.0028	-0.0035 ± 0.0021	0.0015 ± 0.0064	-0.011 ± 0.0014	0.0035 ± 0.0092
3C:Proliferation	-0.385 ± 0.027	-0.0115 ± 0.0064	-0.051 ± 0.064	-0.047 ± 0.023	0.0045 ± 0.083	0.0155 ± 0.013	0.003 ± 0.0085	-0.276 ± 0.04	-0.891 ± 0.063	0.0185 ± 0.056	0.0495 ± 0.013	0.0285 ± 0.019	-0.086 ± 0.04	-0.013 ± 0.061	-0.001 ± 0.037	0.0035 ± 0.03	-0.0285 ± 0.0092	-0.0325 ± 0.0064	-0.685 ± 0.77
LPS:CCL2/MCP-1	-0.0925 ± 0.13	-0.016 ± 0.0014	0.0055 ± 0.0078	-0.013 ± 0.024	0.0065 ± 0.028	0.005 ± 0.0042	0.037 ± 0.017	-0.0475 ± 0.0035	-0.131 ± 0.0057	-0.0335 ± 0.074	-0.03 ± 0.055	-0.0295 ± 0.1	-0.0565 ± 0.064	0.0085 ± 0.04	0.021 ± 0.042	0.036 ± 0.034	-0.0015 ± 0.029	-0.0045 ± 0.012	0.0045 ± 0.029
